Measurements from ChEMBL document CHEMBL1201862, “PubChem BioAssay data set” (2004).
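Dose response: 5 concentrations. Exposure: 48 h. Format: 96-well plates. Endpoint: linear interpolation; highest concentration if not reached. At the GI50, growth is halved.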 Active and inactive are the calls of the source. Rule as the data show it: active = GI50 up to about 1.1 µM and inactive = higher.

How the values were obtained:
Assay in all cases: inhibition of tumour cell growth, NCI panel, 48 h
CCRF-CEM = test system: CCRF-CEM
NCI/ADR-RES = test system: NCI/ADR-RES
HT-29 = test system: HT-29
SNB-75 = test system: SNB-75
UACC-62 = test system: UACC-62
BT-549 = test system: BT-549
IGROV-1 = test system: IGROV-1
HOP-92 = test system: HOP-92
M14 = test system: M14
K562 = test system: K562
Hs-578T = test system: Hs-578T
MCF7 = test system: MCF7
NCI-H23 = test system: NCI-H23
HCT-116 = test system: HCT-116
MDA-N = test system: MDA-N
LOX IMVI = test system: LOX IMVI
SF-539 = test system: SF-539
A549 = test system: A549
SK-MEL-2 = test system: SK-MEL-2
RPMI-8226 = test system: RPMI-8226

Structure (SMILES) | GI50 (CCRF-CEM) | GI50 (NCI/ADR-RES) | GI50 (HT-29) | GI50 (SNB-75) | GI50 (UACC-62) | GI50 (BT-549) | GI50 (IGROV-1) | GI50 (HOP-92) | GI50 (M14) | GI50 (K562) | GI50 (Hs-578T) | GI50 (MCF7) | GI50 (NCI-H23) | GI50 (HCT-116) | GI50 (MDA-N) | GI50 (LOX IMVI) | GI50 (SF-539) | GI50 (A549) | GI50 (SK-MEL-2) | GI50 (RPMI-8226)
CCCCCC(/C=N/NC(N)=S)C(O)(C(F)(F)F)C(F)(F)F (stereo not given) | > 10 µM (inactive) | > 10 µM (inactive) | > 10 µM (inactive) | > 10 µM (inactive) | > 10 µM (inactive) | > 10 µM (inactive) | > 10 µM (inactive) | > 10 µM (inactive) | > 10 µM (inactive) | > 10 µM (inactive) | > 10 µM (inactive) | > 10 µM (inactive) | > 10 µM (inactive) | > 10 µM (inactive) | > 10 µM (inactive) | > 10 µM (inactive) | > 10 µM (inactive) | > 10 µM (inactive) | > 10 µM (inactive) | 
Cn1c(=O)cc(NNc2ccc(Br)cc2)[nH]c1=O | 0.431 µM (active) | 31.1 µM (inactive) | 3.53 µM (inactive) |  |  | 16.9 µM (inactive) | 11.1 µM (inactive) | 13.9 µM (inactive) | 15.5 µM (inactive) | 1.17 µM (inactive) | 3.88 µM (inactive) | 10.4 µM (inactive) |  | 10.4 µM (inactive) | 14.7 µM (inactive) | 2.11 µM (inactive) | 3.31 µM (inactive) | 13.9 µM (inactive) |  | 6 µM (inactive)
CC1OC(OC2C(O[C@H]3CC[C@@]4(C)C(=CC[C@H]5[C@@H]6C[C@@H]7O[C@]8(CC[C@H](C)CN8)[C@@H](C)[C@@H]7[C@@]6(C)CC[C@@H]54)C3)OC(CO)C(O)C2OC2OC(CO)C(O)C(O)C2O)C(O)C(O)C1O (stereo not given in full) | 21.6 µM (inactive) | 16.4 µM (inactive) | 17.8 µM (inactive) | 14.5 µM (inactive) | 17.6 µM (inactive) | 17 µM (inactive) | 19.5 µM (inactive) | 17.5 µM (inactive) | 18.4 µM (inactive) | > 10 µM (inactive) | 14.7 µM (inactive) | 16.9 µM (inactive) | 18.5 µM (inactive) | 20.1 µM (inactive) | 20.7 µM (inactive) | 28.3 µM (inactive) | 16.7 µM (inactive) | 18.1 µM (inactive) | 18.4 µM (inactive) | 
COc1cc(S(=O)(=O)Nc2nc(-c3ccc(N)cc3)cs2)ccc1Cl | 48.5 µM (inactive) | 89.5 µM (inactive) | 54 µM (inactive) | > 100 µM (inactive) | 28.4 µM (inactive) | 51.9 µM (inactive) | 44.7 µM (inactive) | 64.9 µM (inactive) | 59.8 µM (inactive) | 58.2 µM (inactive) | 91.4 µM (inactive) | 36.8 µM (inactive) | 45.8 µM (inactive) | 65.2 µM (inactive) | 55.8 µM (inactive) | 91.8 µM (inactive) | > 100 µM (inactive) | 51.5 µM (inactive) | 69.5 µM (inactive) | 
COC(=O)/C=C/CC(=O)NS(C)(=O)=O | > 10 µM (inactive) | > 10 µM (inactive) | > 10 µM (inactive) |  | > 10 µM (inactive) | > 10 µM (inactive) | > 10 µM (inactive) |  | > 10 µM (inactive) |  | > 10 µM (inactive) | > 10 µM (inactive) | > 10 µM (inactive) | > 10 µM (inactive) | > 10 µM (inactive) | > 10 µM (inactive) | > 10 µM (inactive) | > 10 µM (inactive) | > 10 µM (inactive) | > 10 µM (inactive)
O=C(CSc1nc2nncc-2c(O)[nH]1)c1ccc(Cl)cc1 | > 100 µM (inactive) | > 100 µM (inactive) | > 100 µM (inactive) | 0.246 µM (active) | > 100 µM (inactive) | > 100 µM (inactive) | > 100 µM (inactive) |  | > 100 µM (inactive) | > 100 µM (inactive) | > 100 µM (inactive) | > 100 µM (inactive) | > 100 µM (inactive) | > 100 µM (inactive) | > 100 µM (inactive) | > 100 µM (inactive) | > 100 µM (inactive) | > 100 µM (inactive) | 75.3 µM (inactive) | > 100 µM (inactive)
O=C(O)CCNc1[nH]cnc2ncnc1-2 | > 100 µM (inactive) | > 100 µM (inactive) | > 100 µM (inactive) | > 100 µM (inactive) | > 100 µM (inactive) | > 100 µM (inactive) | > 100 µM (inactive) | > 100 µM (inactive) | > 100 µM (inactive) | > 100 µM (inactive) | > 100 µM (inactive) | > 100 µM (inactive) | > 100 µM (inactive) | > 100 µM (inactive) | > 100 µM (inactive) | > 100 µM (inactive) |  | > 100 µM (inactive) | > 100 µM (inactive) | > 100 µM (inactive)
COP(=O)(/C=C/C(NC(=O)C(Cl)(Cl)Cl)c1ccccc1)OC (stereo not given) |  | > 100 µM (inactive) | > 100 µM (inactive) | > 100 µM (inactive) | > 100 µM (inactive) | > 100 µM (inactive) | > 100 µM (inactive) | > 100 µM (inactive) | > 100 µM (inactive) | > 100 µM (inactive) | > 100 µM (inactive) | > 100 µM (inactive) | > 100 µM (inactive) | > 100 µM (inactive) | > 100 µM (inactive) | > 100 µM (inactive) |  | > 100 µM (inactive) | > 100 µM (inactive) | > 100 µM (inactive)
O=C(NC1=C(Cl)C(=O)c2ccccc2C1=O)c1ccc(F)cc1 | 0.802 µM (active) | 3.37 µM (inactive) | 3.49 µM (inactive) | 5.83 µM (inactive) | 0.279 µM (active) | 3.46 µM (inactive) | 1.7 µM (inactive) | 1.61 µM (inactive) | 2.6 µM (inactive) | 0.91 µM (active) | 8.91 µM (inactive) | 3.62 µM (inactive) | 3.27 µM (inactive) | 0.455 µM (active) | 3.33 µM (inactive) |  | 4.4 µM (inactive) | 5.37 µM (inactive) |  | 2.51 µM (inactive)
Cc1ccc(CC2(C(=O)O)Cc3ccc(C)cc3C2)cc1 (stereo not given) | 49.2 µM (inactive) | > 100 µM (inactive) | > 100 µM (inactive) | > 100 µM (inactive) | 56.5 µM (inactive) | 65.3 µM (inactive) | > 100 µM (inactive) |  | > 100 µM (inactive) | 61.7 µM (inactive) | > 100 µM (inactive) | > 100 µM (inactive) | 75.5 µM (inactive) | > 100 µM (inactive) | > 100 µM (inactive) | > 100 µM (inactive) | > 100 µM (inactive) | 72.9 µM (inactive) | > 100 µM (inactive) | 69.3 µM (inactive)
NC12CC3C4CC5(N)CC3C(C1)C(C5)C4C2 | > 100 µM (inactive) | > 100 µM (inactive) | > 100 µM (inactive) |  | > 100 µM (inactive) | > 100 µM (inactive) | > 100 µM (inactive) | > 100 µM (inactive) | > 100 µM (inactive) | > 100 µM (inactive) | > 100 µM (inactive) | > 100 µM (inactive) | > 100 µM (inactive) | > 100 µM (inactive) | > 100 µM (inactive) | > 100 µM (inactive) |  | > 100 µM (inactive) | > 100 µM (inactive) | 
